How the values were obtained:
[1] = test system: latent HIV-1-infected U1 cells; experiment: HIV reactivation from latent cells: intracellular HIV-1 RNA (qRT-PCR); type: cell-based; details: 24 h (Figure 1D)
Method: (§1) The reactivation of HIV-1 from latently infected cells was determined by the measurement of supernatant p24 antigen and intracellular HIV-1 RNA levels. ACH-2 cells or U1 cells (5 × 10^5 cells/mL) were placed in 96-well plates, and then the cells were incubated with different concentrations of drugs for 24 h to extract RNA and for 48 h to collect the supernatant. The increase in supernatant p24 antigen levels was measured using […] G1200 (Fujirebio, Tokyo, Japan). The total RNA was extracted using an RNeasy Mini Kit (Qiagen, Hilden, Germany), following the manufacturer’s protocols. The cDNA was synthesized using PrimeScript RT Master Mix (Takara Bio, Shiga, Japan), and quantitative real-time PCR analyses for the intracellular HIV-1 RNA were carried out with PowerUp^TM SYBR Green Master Mix (Applied Biosystems, Foster City, CA, United States). The oligonucleotide primers used were as follows: 5′-[…]-3′ (forward) and 5′-[…]-3′ (reverse) for HIV-RNA detection; 5′-[…]-3′ (forward) and 5′-[…]-3′ (reverse) for β-actin. The HIV-RNA expressions were normalized with that of β-actin, which was indicated as the relative quantity, and the increase in HIV-1 RNA levels in the presence of a drug was compared with that without a drug.
(§2) FIGURE 1 (A,B) The increase in viral production from ACH-2 cells (A) and U1 cells (B) was examined by supernatant p24 antigen levels on day 2. […]

[2] = test system: latent HIV-1-infected ACH-2 cells; experiment: as above; type: cell-based; details: 24 h (Figure 1C)
Method: as §1, §2

[3] = test system: latent HIV-1-infected ACH-2 cells; experiment: HIV reactivation from latent cells: supernatant p24 antigen; type: cell-based; details: for viral production (supernatant p24 antigen levels): day 2, single drug (Figure 1A)
Method: as §1
FIGURE 1 (A,B) The increase in viral production from ACH-2 cells (A) and U1 cells (B) was examined by supernatant p24 antigen levels on day 2. (C,D) Changes in the intracellular HIV-1 mRNA levels due to treatment with these drugs in ACH-2 cells (C) and U1 cells (D) after 24 h of incubation.
FIGURE 2 (A) Effect of birinapant when combined with TNF-α. The supernatant p24 levels with birinapant (1∼100 nM) in ACH-2 cell culture on day 2 are shown in white bars, and p24 values with birinapant when combined with TNF-α (10 ng/ml) are shown in black bars. (B) HIV-1 production from ACH-2 cells when reactivated by PEP005 (0.05∼50 nM) for 24 h. (C) Changes in the living cell numbers in the presence of drug(s) on days 1, 3, and 5.

J1.1 cells = experiment: Virus production in J1.1 cells (viral RNA copies in supernatant); type: cell-based, HIV-1; details: birinapant combined with TNF-α 20 ng/mL, 48 h
Method: Cells were treated with birinapant with ( [drawing 1] ) or without ( [drawing 2] ) TNF-α (20 ng/mL). After 48 h incubation, culture supernatant was harvested, and viral RNA was extracted. Viral copy numbers in culture supernatant were measured by real-time RT-PCR. Click here for additional data file.

TNF-α = TNF-α production in culture supernatants (ELISA); type: cell-based; details: ACH-2 cells, PEP005 0–50 nM, 24 h
Method: The expression of TNF-α mRNA was measured as previously described ([Zhang et al., 2014]). For the detection of supernatant TNF-α levels, ACH-2 cells (2.5 × 10^5 cells/ml) were incubated with various concentrations of PEP005 (0–50 nM) for 24 h at 37°C. Culture supernatants were harvested and centrifuged to remove cellular debris. The production of TNF-α was measured by using a Human TNF alpha Platinum ELISA Kit (eBioscience, Hatfield, United Kingdom) according to the manufacturer’s instructions. The sensitivity of the assay was 2.3 pg/ml.
Supplementary file Data_Sheet_6.PDF: FIGURE S6 Elevation of supernatant TNF-α protein and mRNA levels in the presence of PEP005. (A) ACH-2 cells were exposed to PEP005, incubated for 24 h, supernatant was harvested, and TNF-α protein levels were measured using ELISA. (B) Changes in mRNA levels of TNF-α in PEP005-treated primary CD4^+ T-cells in eight HIV-1 patients (Supplementary Table S3). Cells were harvested after 24 h incubation. Click here for additional data file.

U1 cells = experiment: FACS analysis of active caspase-3 expression; type: cell-based; details: 24 h, birinapant 50 nM, PEP005 5 nM, TNF-α 10 ng/ml
Method: Intracellular HIV-1 p24 levels and active form of caspase-3 expression were determined as previously described ([Hattori et al., 2009]; [Duro et al., 2010]; [Matsuda et al., 2015]). In brief, ACH-2 cells or U1 cells (2.5 × 10^5 cells/mL) were fixed with 1% paraformaldehyde/phosphate buffered saline (PBS) for 20 min and were permeabilized with Flow Cytometry Perm Buffer (TONBO biosciences, San Diego, CA, United States). After incubation on ice for 5 min, the cells were stained with anti-HIV-1 p24 (24-4)-FITC mAb (Santa Cruz Biotechnology, Dallas, TX, United States) and/or with Alexa Fluor 647-conjugated anti-active caspase-3 mAb (C92-605) (BD Pharmingen, San Diego, CA, United States) for 30 min on ice. Cells were then analyzed on a BD FACSVerse flow cytometer (BD Biosciences, Franklin Lakes, NJ, United States). The corrected data were analyzed with FlowJo software (Tree Star, San Carlos, CA, United States).
FIGURE 3 (A,B) ACH-2 (A) and U1 cells (B) were treated with birinapant (50 nM), PEP005 (5 nM), birinapant plus PEP005, TNF-α (10 ng/ml), and intracellular expression of caspase-3 was examined after 24 h of incubation. The percentage of active caspase-3 cells was determined by comparison with unstimulated cells. (C) ACH-2 cells after 24 h of PEP005 (0∼50 nM) treatment with or without birinapant (50 nM) were separately analyzed in p24^+ and p24^- populations for caspase-3 expression.

Row | Structure (SMILES) | intracellular HIV-1 mRNA levels [1] | intracellular HIV-1 mRNA levels [2] | decrease of supernatant p24 levels ([3]; ACH-2 cells reactivated by PEP005 (or TNF-α), simultaneously treated with birinapant 50 nM, 24 h) [%] | supernatant p24 antigen levels ([3]; ACH-2 cells, birinapant 1∼100 nM alone, day 2 (Figure 2A)) | viral production (supernatant p24 antigen levels) ([3]; ACH-2 cells) | virus production (viral copy numbers in culture supernatant) (J1.1 cells) | supernatant HIV-1 p24 levels ([3]; ACH-2 cells, after 24 h, PEP005 5 nM and higher (Figure 2B)) | increase of supernatant HIV-1 p24 levels compared with unstimulated ACH-2 cells ([3]; ACH-2 cells, day 2 (Figure 1A)) [fold] | supernatant TNF-α level (TNF-α) | percentage of active caspase-3 cells (U1 cells) [%]
1 | CC[C@H](NC(=O)[C@H](C)NC)C(=O)N1C[C@@H](O)C[C@H]1Cc1c(-c2[nH]c3cc(F)ccc3c2C[C@@H]2C[C@H](O)CN2C(=O)[C@H](CC)NC(=O)[C@H](C)NC)[nH]c2cc(F)ccc12 [Birinapant] | only had a minor effect on HIV-1 reactivation | only had a minor effect on HIV-1 reactivation | ~40 | failed to affect supernatant p24 antigen levels | only had a minor effect on HIV-1 reactivation | suppresses virus production | – | – | – | –
2 | C/C=C(/C)C(=O)O[C@H]1C(C)=C[C@]23C(=O)[C@@H](C=C(CO)[C@@H](O)[C@]12O)[C@H]1[C@@H](C[C@H]3C)C1(C)C [PEP005, ingenol-3-angelate] | – | – | – | – | increased viral production | – | reactivated and increased the supernatant HIV-1 p24 levels | > 100 | elevated | 10.8

From paper PMC6156138, “Combination of a Latency-Reversing Agent With a Smac Mimetic Minimizes Secondary HIV-1 Infection in vitro” (Frontiers in Microbiology, 2018)
